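Grown in 96-well plates, cells were treated for 48 hours with each compound at five concentrations. Insufficient inhibition: endpoint recorded as highest concentration tested. TGI: total growth inhibition.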 Where a SMILES comes first, the peptide text is derived from it. The star is where a group is joined. Cbz = O=C(OCc1ccccc1)*; Boc = CC(C)(C)OC(=O)*; Bn = c1ccc(C*)cc1
Assays:
Assay in all cases: NCI anticancer screen, dose series, 48 h
HCT-15 colon = system: HCT-15 colon
HS 578T breast = system: HS 578T breast
SR leukemia = system: SR leukemia
HOP-62 NSCLC = system: HOP-62 NSCLC
COLO 205 colon = system: COLO 205 colon
SN12C renal = system: SN12C renal
HL-60(TB) leukemia = system: HL-60(TB) leukemia
SK-MEL-5 melanoma = system: SK-MEL-5 melanoma
SF-539 CNS = system: SF-539 CNS
MDA-N = system: MDA-N
NCI-H23 lung = system: NCI-H23 lung
SK-OV-3 ovarian = system: SK-OV-3 ovarian
786-0 renal = system: 786-0 renal
SW-620 colon = system: SW-620 colon
U251 CNS = system: U251 CNS
SNB-75 CNS = system: SNB-75 CNS
UACC-62 melanoma = system: UACC-62 melanoma
MOLT-4 leukemia = system: MOLT-4 leukemia
HCC-2998 colon = system: HCC-2998 colon

Structure (SMILES)	TGI (HCT-15 colon) [µM]	TGI (HS 578T breast) [µM]	TGI (SR leukemia) [µM]	TGI (HOP-62 NSCLC) [µM]	TGI (COLO 205 colon) [µM]	TGI (SN12C renal) [µM]	TGI (HL-60(TB) leukemia) [µM]	TGI (SK-MEL-5 melanoma) [µM]	TGI (SF-539 CNS) [µM]	TGI (MDA-N) [µM]	TGI (NCI-H23 lung) [µM]	TGI (SK-OV-3 ovarian) [µM]	TGI (786-0 renal) [µM]	TGI (SW-620 colon) [µM]	TGI (U251 CNS) [µM]	TGI (SNB-75 CNS) [µM]	TGI (UACC-62 melanoma) [µM]	TGI (MOLT-4 leukemia) [µM]	TGI (HCC-2998 colon) [µM]
O=C(N/N=C/c1ccc([N+](=O)[O-])cc1)c1cccc2nc3ccccc3nc12	> 100	73.6	> 64.7	22.7	> 100	> 100	> 100	> 100	> 65.6	> 100	> 100	> 100	> 100	> 100	> 100	> 100	> 100	> 100	–
C=C(C(=O)O)C1CCC(CC/C=C(\C)CC/C=C(\C)CCC=C(C)C)CO1 (stereo unspecified)	31.9	> 100	–	55.6	27.4	34.3	69.4	24.9	32.4	27.8	40.5	> 100	28.1	33.4	78.6	> 100	> 100	–	–
COc1ccc(C2C3CCc4ccccc4C3=NN2S(=O)(=O)c2ccc(Cl)cc2)cc1 (stereo unspecified)	4.52	> 100	25.4	> 100	23.1	> 100	74.9	> 100	39.1	9.19	> 100	16	66.6	> 100	60.8	–	> 100	> 100	–
COc1ccc(Cc2c(N)[nH]c(=O)n(C)c2=O)cc1	> 100	> 100	–	> 100	> 100	> 100	–	> 100	> 100	> 100	> 100	> 100	> 100	> 100	> 100	> 100	> 100	–	> 100
C=CC(C)(C)C(=C)C(=O)N(C)c1ccccc1I	> 100	> 100	> 100	> 100	> 100	> 100	–	> 100	–	> 100	> 100	> 100	> 100	> 100	> 100	> 100	> 100	> 100	> 100
Cc1nc2ccc(F)cc2c2c1CCO2	> 100	> 100	> 100	–	> 100	> 100	55.2	> 100	> 100	> 100	> 100	–	> 100	> 100	> 100	> 100	> 100	> 100	> 100
COc1cc2c(cc1OC)CC(=O)c1cc(OC)c(OC)cc1/C=C\2	> 12.5	> 12.5	–	> 12.5	> 12.5	> 12.5	7.05	> 12.5	> 12.5	7.36	> 12.5	> 12.5	> 12.5	> 12.5	> 12.5	> 12.5	> 12.5	> 12.5	–
NC1CC(N)c2c(Br)sc(Br)c21 (stereo unspecified)	> 100	> 100	> 100	> 100	> 100	> 100	–	> 100	> 100	> 100	> 100	> 100	> 100	> 100	> 100	–	> 100	> 100	> 100
COC(=O)C12OC(C)(C(CC(=O)OC(C)(C)C)C1=O)C1C(=O)N(c3ccccc3)C(=O)C12 (stereo unspecified)	> 100	> 100	> 100	> 100	> 100	> 100	–	> 100	–	> 100	> 100	> 100	> 100	> 100	> 100	> 100	> 100	> 100	> 100
CCN(CCCN(CC)C(=O)Nc1ccccc1)C(=O)Nc1ccccc1	> 100	–	> 100	> 100	> 100	> 100	> 100	> 100	> 100	> 100	> 100	> 100	> 100	> 100	> 100	> 100	> 100	> 100	> 100
CN1CCN(c2cc3c(cc2F)c(=O)c(C(=O)O)cn3C2CC2)CC1CC#N (stereo unspecified)	> 100	–	> 100	> 100	> 100	> 100	> 100	> 100	> 100	> 100	> 100	> 100	> 100	> 100	> 100	> 100	> 100	> 100	> 100
COC(=O)C1CC=C(SC(=O)c2ccccc2)N1C(=O)c1ccccc1 (stereo unspecified)	> 100	> 100	–	> 100	> 100	–	–	> 100	–	> 100	> 100	> 100	> 100	> 100	> 100	> 100	> 100	> 100	> 100
Cc1cccc2c(=O)c3c(O)cc(O)cc3[nH]c12	> 10	> 10	–	> 10	> 10	> 10	–	> 10	> 10	> 10	> 10	> 10	> 10	> 10	> 10	> 10	> 10	> 10	> 10
CC(C)C1OC2(C)OC(=N)C1(C#N)C(C#N)(C#N)C2C (stereo unspecified)	25.3	69.4	–	–	27.6	26.8	37	26.6	66	29.8	> 100	> 100	51.7	80.5	65.7	> 100	80.5	> 100	30.7
OCC1OC(Oc2cc(O)cc(/C=C/c3ccc(O)cc3)c2)C(O)C(O)C1O (stereo unspecified)	> 100	> 100	> 100	> 100	–	> 100	> 100	> 100	> 100	> 100	–	> 100	> 100	> 100	> 100	> 100	> 100	> 100	–
O=C1NC(=S)NC(=O)C1C(c1ccc([N+](=O)[O-])cc1)C1C(=O)NC(=S)NC1=O	> 100	> 100	–	> 100	> 100	> 100	> 100	> 100	–	> 100	> 100	–	> 100	> 100	> 100	–	> 100	> 100	–
N#CCCSC1SC(=C2SC3=C(SCCS3)S2)SC1SCCC#N (stereo unspecified)	> 100	> 100	> 100	> 100	> 100	> 100	> 100	> 100	> 100	> 100	> 100	–	> 100	> 100	> 100	–	> 100	> 100	> 100
c1cc(CSP234N5CCN2CCN3CCN4CC5)ccc1CSP123N4CCN1CCN2CCN3CC4	> 100	> 100	–	> 100	> 100	> 100	79.8	> 100	> 100	> 100	> 100	–	> 100	> 100	> 100	> 100	> 100	> 100	> 100
Cc1cc(C)nc(NC(=S)Nc2ccccc2Cl)c1	> 100	> 100	> 100	> 100	> 100	> 100	> 100	> 100	> 100	> 100	–	> 100	> 100	> 100	> 100	> 100	> 100	> 100	–
Cc1ccccc1NC(=O)C(=O)CC(=O)c1sc(Nc2ccccc2[N+](=O)[O-])nc1C	> 100	> 100	–	58.1	> 100	> 100	> 100	> 100	91	> 100	> 100	58.7	48.3	> 100	> 100	–	48	> 100	59.3
CC(C)(C)OC(=O)NC(Cc1ccc(OCc2ccccc2)cc1)C(=O)NC(CCCCNC(=O)OCc1ccccc1)C(=O)O (stereo unspecified) (Boc-Tyr(Bn)-Lys(Cbz)-OH; configuration not given here)	–	> 100	89.6	> 100	> 100	> 100	86.9	> 100	–	> 100	> 100	–	> 100	> 100	> 100	> 100	43.9	85.1	> 100
CCO[C@@H]1CCC(S(=O)c2ccc(C)cc2)=CO1 (stereo partly specified)	> 100	> 100	> 100	> 100	> 100	> 100	> 100	> 100	–	> 100	> 100	–	> 100	> 100	> 100	> 100	> 100	> 100	> 100
COC(=O)[C@@H](O)[C@]1(C(=O)OC)C2O[C@@H](OC)[C@@H]1CCCCCC[C@H]2O	> 100	> 100	> 100	> 100	> 100	> 100	–	> 100	> 100	> 100	> 100	> 100	> 100	> 100	> 100	> 100	> 100	> 100	> 100
c1ccc(-c2cs[s+]c2)cc1	> 100	> 100	> 100	> 100	> 100	> 100	> 100	> 100	–	> 100	> 100	> 100	> 100	> 100	> 100	> 100	> 100	85.6	> 100
CC1=C(O)C(=O)C[C@]2(C)[C@H]3CC=C4[C@@H]5CC(C)(C)CC[C@@H]5C(=O)[C@H](O)[C@@]4(C)[C@]3(C)CC[C@@H]12	> 50	> 50	–	> 50	> 50	> 50	> 50	> 50	> 50	> 50	> 50	> 50	> 50	> 50	> 50	> 50	> 50	> 50	> 50
CCOC(=O)c1sc2nc(SC)nc3c2c1NCN3c1ccc2c(c1)OCCCO2	> 100	37	> 100	> 100	–	> 100	> 100	> 100	53.9	> 100	> 100	75.7	26.8	> 100	57.7	–	> 100	> 100	> 100
C=C[C@H]1CC[C@H]2[C@@H]3CC=C4C[C@@H](OC5OCC(O)C(O)C5O)CC[C@]4(C)[C@H]3CC[C@]12C (stereo partly specified)	> 100	48.3	33.7	> 100	> 100	33.2	> 100	> 100	28.6	65.8	66.3	28.5	34.1	40.2	30.5	–	54.3	> 100	–

From PubChem BioAssay (NCI)
